Holding throughout (assay): biochemical
One test deals with DRB3*0101 (Homo sapiens, UniProt P01903+P79483). In kind it is binding.
In a further test the target is DRB1*1302 (Homo sapiens, UniProt P01903+P01911, A100E/A169T/K41T/L162R/M171V/P40S/Q125H/Q178H/Q39Y/Q99D/R42S/S66N/T262R/V115G/W38E/Y61H). It is filed as binding.
A further test addresses DRB1*0901 (Homo sapiens, UniProt P01903+P01911, A100R/A103E/D57H/D86V/F55Y/F60I/F76Y/I96F/K127E/L162R/M171V/P40D/Q125H/Q99R/R33Q/R42F/S133A/S66N/T210M/V115G/W38K/Y107V/Y59G/Y89S). In kind it is binding.
A further test has as its target DRB1*1201 (Homo sapiens, UniProt P01903+P01911, A100R/A169T/D57E/D86V/F55L/H45Y/K41T/L162R/M171V/P40S/Q125H/Q178H/Q39Y/Q99D/R42G/S66L/T262R/V114A/V67L/W38E/Y59H/Y61H/Y89S). In kind it is binding.
Another test has as its target DR7 (DRB1*0701) (Homo sapiens, UniProt P01903+P01911, A100R/A102G/A103Q/D57E/D86V/E43K/F76Y/K127E/L162R/M171V/P40G/Q125H/Q99D/R33Q/R42Y/R54Q/S133A/S66F/T210M/V115G/Y107V/Y59L/Y89S). In kind it is binding.
In the next test the target is DRB5*0101 (Homo sapiens, UniProt P01903+Q30154). The following applies: Binding affinity DRB5 *0101.
Another test deals with DRB4*0101 (Homo sapiens, UniProt P01903+P13762, G164S). It is filed as binding.
In the next test the target is DRB1*0802 (Homo sapiens, UniProt P01903+P01911, A100R/A103L/A169T/F76Y/H45Y/I96F/K41T/L162R/M171V/P40S/Q125H/Q178H/Q39Y/Q99D/R218S/R42G/S66Y/V115G/W38E). In kind it is binding.
The target in the next test is DRB1*1101 (Homo sapiens, UniProt P01903+P01911, A100R/A169T/A87E/I96F/K41T/L162R/M171V/P40S/Q125H/Q178H/Q39Y/Q99D/R42S/S66Y/T262R/V115G/W38E). The settings on record: Binding affinity DRB1 *1101.
DRB1*1101, sequence (P01903 26-254 limits assumed, other chains not shown): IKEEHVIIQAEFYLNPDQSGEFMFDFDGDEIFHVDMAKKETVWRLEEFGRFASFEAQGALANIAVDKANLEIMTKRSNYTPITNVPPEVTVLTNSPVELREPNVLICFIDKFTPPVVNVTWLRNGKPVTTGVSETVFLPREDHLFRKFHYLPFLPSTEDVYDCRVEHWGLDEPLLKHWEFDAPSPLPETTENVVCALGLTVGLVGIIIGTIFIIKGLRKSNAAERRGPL
The target of another test is DR4w4 (DRB1*0401) (Homo sapiens, UniProt P01903+P01911, A100K/A169T/F76Y/I96L/K127E/L162R/M171V/N62H/P40V/Q125Y/R42H/S133A/S149N/S66Y/V115G/V209L/W38E). It is filed as binding.
For a further test, the target named is DR1 (DRB1*0101) (Homo sapiens, UniProt P01903+P01911, A100R/D57E/F55L/F60I/F76Y/I96L/L162R/M171V/P40L/Q125E/R42F/V115G/Y59C). In kind it is binding.
The target in the next test is DRB1*1501 (Homo sapiens, UniProt P01903+P01911). It is filed as binding.

pIC50: −log10 of the molar value. No end group written: not given here.

DRB1*1302, sequence (P01903 26-254 limits assumed, other chains not shown): as above

Consider `CC(C)C[C@H](NC(=O)CNC(=O)[C@H](CC(N)=O)NC(=O)[C@H](Cc1ccc(O)cc1)NC(=O)[C@@H](NC(=O)[C@H](CC(=O)O)NC(=O)[C@H](CC(C)C)NC(=O)[C@H](C)N)C(C)C)C(=O)N[C@@H](CC(C)C)C(=O)N1CCC[C@H]1C(=O)N1CCC[C@H]1C(=O)N[C@@H](Cc1ccc(O)cc1)C(=O)N[C@@H](C)C(=O)N[C@@H](CO)C(=O)N[C@@H](CS)C(=O)O` [Peptide 68.0052], for which the pIC50 against DRB3*0101 was less than 4.70; on DRB1*1302, less than 4.70; at DRB1*0901 it was less than 4.70; against DRB1*1201 it was 5.12; against DR7 (DRB1*0701), less than 4.70; at DRB5*0101, less than 4.70. The negative-log IC50 (pIC50) on DRB4*0101 was less than 4.70.

Consider `CC(C)C[C@H](NC(=O)CNC(=O)[C@H](CC(N)=O)NC(=O)[C@H](Cc1ccc(O)cc1)NC(=O)[C@@H](NC(=O)[C@H](CC(=O)O)NC(=O)[C@@H](N)CC(C)C)C(C)C)C(=O)N[C@@H](CC(C)C)C(=O)N1CCC[C@H]1C(=O)N1CCC[C@H]1C(=O)N[C@@H](Cc1ccc(O)cc1)C(=O)N[C@@H](C)C(=O)N[C@@H](CO)C(=O)N[C@@H](CS)C(=O)N[C@@H](Cc1c[nH]cn1)C(=O)O` [Peptide 68.0053], for which the negative logarithm of the IC50 (pIC50) at DRB3*0101 is less than 4.70; on DRB1*1302, less than 4.70; against DRB1*0901 it was less than 4.70; against DRB1*1201, 5.01; on DR7 (DRB1*0701) it was less than 4.70; at DRB5*0101, less than 4.70. Besides, the negative-log IC50 (pIC50) against DRB4*0101 was less than 4.70.

In the case of `CC(C)C[C@H](NC(=O)CNC(=O)[C@H](CC(N)=O)NC(=O)[C@@H](N)Cc1ccc(O)cc1)C(=O)N[C@@H](CC(C)C)C(=O)N1CCC[C@H]1C(=O)N1CCC[C@H]1C(=O)N[C@@H](Cc1ccc(O)cc1)C(=O)N[C@@H](C)C(=O)N[C@@H](CO)C(=O)N[C@@H](CS)C(=O)N[C@@H](Cc1c[nH]cn1)C(=O)N[C@@H](CC(C)C)C(=O)N[C@H](C(=O)N[C@@H](CCC(=O)O)C(=O)O)[C@@H](C)O` [Peptide 68.0054], the pIC50 against DRB3*0101, against DRB1*1201, against DR7 (DRB1*0701) and against DRB4*0101 was less than 4.70 each time.

On to `CSCC[C@H](NC(=O)[C@@H](NC(=O)[C@H](CCCCN)NC(=O)[C@@H](NC(=O)[C@H](C)NC(=O)[C@H](CC(=O)O)NC(=O)[C@@H](N)[C@@H](C)O)C(C)C)C(C)C)C(=O)N[C@@H](CC(=O)O)C(=O)N[C@@H](CC(C)C)C(=O)N1CCC[C@H]1C(=O)N[C@H](C(=O)N[C@@H](CCC(N)=O)C(=O)N[C@@H](CCC(=O)O)C(=O)N1CCC[C@H]1C(=O)N[C@@H](C)C(=O)O)[C@@H](C)O` [Peptide 68.0074], for which the pIC50 at DRB1*0802, at DRB1*1101, against DR4w4 (DRB1*0401), on DRB3*0101, on DRB1*1302 and against DRB1*0901 was less than 4.70 in each case. In addition, the pIC50 at DRB1*1201, on DR7 (DRB1*0701), against DR1 (DRB1*0101), on DRB5*0101 and on DRB1*1501 was less than 4.70 throughout.

As for KSRLQGGVLVNEILN [Peptide 68.0046], the negative-log IC50 (pIC50) against DRB1*0802 is less than 4.70; on DRB1*1101 it was less than 4.70; at DR4w4 (DRB1*0401) it was less than 4.70; against DRB3*0101 it was less than 4.70; against DRB1*1201 it was 5.02; at DRB5*0101 it was less than 4.70. The pIC50 at DRB1*1501 was less than 4.70.

For LSGLHGQDLFGIWSK [Peptide 68.0040], the pIC50 on DRB1*0802, on DRB1*1101, at DR4w4 (DRB1*0401), at DRB3*0101, on DRB1*1302 and against DRB1*0901 was less than 4.70 each time. Further, the pIC50 against DRB1*1201 is 5.10; on DR7 (DRB1*0701) it was less than 4.70; on DRB5*0101, less than 4.70; against DRB1*1501, less than 4.70.

In the case of QWVLTAAHCLKKNSQ [Peptide 68.0004], the pIC50 against DRB1*0802, against DR4w4 (DRB1*0401), against DRB3*0101, against DRB1*1302, on DRB1*1201 and against DRB1*1501 was less than 4.70 in each case.

What is called pIC50 is −log10 of the IC50, conventionally taken in molar units. High values mean a small IC50, low ones a large IC50.

These data come from patent US9340577B2, “HLA binding motifs and peptides and their uses” (priority 1992, dated 2016).
